Legend:
[1] = biological target: PERK oligomers in HEK-293 cells (Homo sapiens (Human), UniProt Q9NZJ5); assay: Detection of PERK oligomerization using NanoBRET; assay type: cell-based; conditions: read-out: EC50 of stimulation of the formation of PERK oligomers
Method: Constructs for BRET were built using the NanoBRET™ Flexi® PPI Starter System (Promega, Madison, WI). The full-length PERK ORF was obtained from Genscript (Piscataway, NJ). HEK-293 cells (catalog #CRL-1573) were obtained from the American Type Culture Collection (ATTC, Manassas, VA). Cells were grown in MEM medium supplemented with 10% heat-inactivated fetal bovine serum (Invitrogen, Carlsbad, CA) and 1% Penicillin/Streptomycin/L-Glutamine at 37° C., 5% CO2, and 95% humidity. For BRET assays, cells were seeded at a density of 40,000 cells/mL in culture medium in 6-well plates and allowed to attach and recover. Cells were transfected with C-terminally tagged PERK-NLuc and C-terminally tagged PERK-Halo using Lipofectamine LTX (Thermo, Waltham, MA) and allowed to express proteins overnight at 37° C., 5% CO2, and 95% humidity. Cells were then detached from culture dishes using 0.05% trypsin-EDTA, collected, and diluted in assay medium consisting of Opti-MEM® I Reduced Serum Medium supplemented with 4% FBS (Thermo) to 22,000 cells/mL. Cells were dispensed into 96-well cell culture plates and HaloTag® NanoBRET™ 618 Ligand (Promega) was added to a final concentration of 100 nM. […] Donor ([…]) and acceptor (618) emissions were measured on a Synergy Neo2 Multi-Mode Reader (BioTek, Winooski, VT) within 10 min of substrate addition. […]

[2] = test system: H929, RPMI8226, GA-10 and DoHH-2 cells; assay: Inhibition of multiple myeloma and B-cell lymphoma cell proliferation; assay type: cell-based; conditions: combination with SOC agents for multiple myeloma or B cell lymphomas
Method: H929, RPMI8226, GA-10, and DoHH-2 cells (catalog #CRL-9068) were obtained from the American Type Culture Collection (ATTC, Manassas, VA). H929 Cells were maintained in RPMI-1640 medium supplemented with 20% heat-inactivated fetal bovine serum (catalog #A3840002, ThermoFisher Scientific, Waltham, MA), 1% Penicillin/Streptomycin/L-Glutamine (catalog #10378016, ThermoFisher Scientific, Waltham, MA), and 0.05 mM 2-mercaptoethanol (catalog #21985-023, ThermoFisher Scientific, Waltham, MA). […]
For cell proliferation assay appropriate number of cells (Forty thousand cells for H929; Twenty thousand cells for RPMI8226, and GA-10; Eight thousand cells for DoHH-2) were seeded per well in 200 μL in respective medium were dispensed into a 96-well black clear bottom plate. […] Plates were read on a Synergy2 or equivalent reader (Biotek, Winooski VT) using an excitation of 540 nm and an emission of 600 nm. At the end of the incubation of DoHH-2, cell viability was determined using CellTiter-Glo® assay (Promega, Madison, WI). Luminescence was measured using EnVision MultiLabel Reader (PerkinElmer, Waltham, MA). Data was analyzed using GraphPad Prism software (GraphPad, San Diego, CA) to calculate IC50 values.

[3] = test system: MV-4-11 acute myeloid leukemia xenograft; assay: MV-4-11 xenograft efficacy model; assay type: in vivo, mice; conditions: 25 mg/kg/day orally for 14 days in combination with Leunase 1000 U/kg
Method: The MV-4-11 acute myeloid leukemia xenograft model was performed in compliance with all the laws, regulations, and guidelines of the National Institutes of Health (NIH) and with the approval of the Animal Care and Use Committee of Crown Bioscience (Taicang, China), an AAALAC accredited facility. Food and water were provided ad libitum. […] Female NOD/SCID (6-9 weeks old; Vital River Laboratories Research Models and Services (Beijing, China)) were inoculated subcutaneously right front flank region with five million cells in Dulbecco's Phosphate Buffered Saline:Matrigel (1:1), using a 27-gauge needle and syringe. When tumor burdens reached 150 mm^3 on average on day 7, mice were randomly assigned into groups such that the mean tumor burden for all groups was within 10% of the overall mean tumor burden for the study population. Groups were treated on days 7-21 as follows: vehicle control (dosed orally and IP to mimic combination group (n=10); Compound 16 dosed orally at 25 mg/kg/day (n=10); Leunase (Kyowa Kirin, Japan) dosed IP at 1000 U/kg/day (n=10); Leunase (Kyowa Kirin, Japan) dosed IP at 1000 U/kg/day (n=10) and Compound 16 dosed orally at 25 mg/kg/day (n=10). Tumor volume and body weight were measured three times per week. Tumor burden (mg) was estimated from caliper measurements by the formula: tumor burden (mg=mm^3)=(length×width^2)/2.

Sequence of PERK oligomers in HEK-293 cells (Q9NZJ5 30-1116): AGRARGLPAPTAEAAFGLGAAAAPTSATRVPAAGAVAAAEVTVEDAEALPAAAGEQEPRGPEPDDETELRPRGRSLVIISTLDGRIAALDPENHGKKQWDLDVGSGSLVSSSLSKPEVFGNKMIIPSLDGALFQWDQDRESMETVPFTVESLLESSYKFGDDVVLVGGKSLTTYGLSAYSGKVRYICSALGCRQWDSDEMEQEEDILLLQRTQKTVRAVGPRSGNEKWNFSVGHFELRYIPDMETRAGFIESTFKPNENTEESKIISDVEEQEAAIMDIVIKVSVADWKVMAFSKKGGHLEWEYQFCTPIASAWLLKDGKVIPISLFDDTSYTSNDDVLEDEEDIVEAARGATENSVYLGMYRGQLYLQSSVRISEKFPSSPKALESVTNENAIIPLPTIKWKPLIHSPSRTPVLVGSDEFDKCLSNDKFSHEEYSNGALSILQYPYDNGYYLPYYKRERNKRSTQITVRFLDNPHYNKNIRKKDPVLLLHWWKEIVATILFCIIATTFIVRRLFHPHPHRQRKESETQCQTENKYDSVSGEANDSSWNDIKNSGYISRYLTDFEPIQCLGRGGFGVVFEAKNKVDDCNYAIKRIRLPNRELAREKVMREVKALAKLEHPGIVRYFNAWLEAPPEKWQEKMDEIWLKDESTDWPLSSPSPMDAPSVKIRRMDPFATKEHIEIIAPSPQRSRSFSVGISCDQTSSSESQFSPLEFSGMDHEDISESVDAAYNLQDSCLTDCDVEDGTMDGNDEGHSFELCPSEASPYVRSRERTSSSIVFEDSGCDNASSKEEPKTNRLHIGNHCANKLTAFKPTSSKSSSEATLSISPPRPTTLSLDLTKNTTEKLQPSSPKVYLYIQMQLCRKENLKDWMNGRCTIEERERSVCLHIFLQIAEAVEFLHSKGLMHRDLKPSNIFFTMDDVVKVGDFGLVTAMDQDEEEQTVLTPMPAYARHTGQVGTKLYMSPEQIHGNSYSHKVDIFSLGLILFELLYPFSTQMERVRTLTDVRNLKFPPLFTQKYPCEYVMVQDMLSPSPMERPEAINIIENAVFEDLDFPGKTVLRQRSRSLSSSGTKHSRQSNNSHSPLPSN
Sequence of PERK oligomers in HEK-293 cells (Q9NZJ5 30-1116): as above

For `CNc1ncc2cc(-c3cccc(NS(=O)(=O)c4cc(Cl)cnc4OC)c3F)c(NC)nc2n1` [Compound 16], the EC50 [1] was 270 nM, the “inhibition of cell proliferation in combination with standard of care agents” value [2] was “additivity or synergy” and the “effect on MV-4-11 tumor growth” value [3] was “tumor regression”.
